System: 227483-062-R1-J1-PDC complex spheroids with HUVEC/MSC, viability
Assay: Anticancer human tumor 227483-062-R1-J1-PDC patient-derived pancreatic carcinoma cell line growth inhibition [CLK]
Details: for IC50: curve of first compound; for viability, T/C: stronger effect = lower value; active = viability on the fitted dose curve at most 10% of control; inactive = the rest
In short: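 Multi-cell-type spheroids combined patient-derived tumor cells with HUVEC endothelial cells and human mesenchymal stem cells. Paired agents were dosed in half-log steps down from about clinical Cmax, or from 10 microM where Cmax was unknown.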

[1] = second compound 0.0316 µM, first compound 0.0316 µM
[2] = second compound 0.0316 µM, first compound 0.1 µM
[3] = second compound 0.0316 µM, first compound 0.316 µM
[4] = second compound 0.0316 µM, first compound 1 µM
[5] = second compound 0.0316 µM, first compound 3.16 µM
[6] = second compound 0.0316 µM, first compound 10 µM
[7] = second compound 0.1 µM, first compound 0.0316 µM
[8] = second compound 0.1 µM, first compound 0.1 µM
[9] = second compound 0.1 µM, first compound 0.316 µM
[10] = second compound 0.1 µM, first compound 1 µM
[11] = second compound 0.1 µM, first compound 3.16 µM
[12] = second compound 0.1 µM, first compound 10 µM
[13] = second compound 0.316 µM, first compound 0.0316 µM
[14] = second compound 0.316 µM, first compound 0.1 µM
[15] = second compound 0.316 µM, first compound 0.316 µM
[16] = second compound 0.316 µM, first compound 1 µM
[17] = second compound 0.316 µM, first compound 3.16 µM
[18] = second compound 0.316 µM, first compound 10 µM
[19] = second compound 1 µM, first compound 0.0316 µM
[20] = second compound 1 µM, first compound 0.1 µM
[21] = second compound 1 µM, first compound 0.316 µM
[22] = second compound 1 µM, first compound 1 µM
[23] = second compound 1 µM, first compound 3.16 µM
[24] = second compound 1 µM, first compound 10 µM
[25] = second compound 3.16 µM, first compound 0.0316 µM
[26] = second compound 3.16 µM, first compound 0.1 µM
[27] = second compound 3.16 µM, first compound 0.316 µM
[28] = second compound 3.16 µM, first compound 1 µM
[29] = second compound 3.16 µM, first compound 3.16 µM
[30] = second compound 3.16 µM, first compound 10 µM
[31] = second compound 10 µM, first compound 0.0316 µM
[32] = second compound 10 µM, first compound 0.1 µM
[33] = second compound 10 µM, first compound 0.316 µM
[34] = second compound 10 µM, first compound 1 µM
[35] = second compound 10 µM, first compound 3.16 µM
[36] = second compound 10 µM, first compound 10 µM
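Also: spheroids exposed to compounds for seven days before readout.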
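For viability, T/C in this document: percent of DMSO vehicle control luminescence as 100% viability.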

COc1ccc([C@@H](O)c2cc(-c3ncnc4cc(N5CCOCC5)ccc34)c(F)cc2Cl)nn1 + CN1CCN(c2cc(C(=O)Nc3cc4cc(-c5cnn(C)c5)ccc4cn3)ccn2)CC1
inactive: viability, T/C [1] 95.2% | viability, T/C [2] 107% | viability, T/C [3] 115% | viability, T/C [4] 99% | viability, T/C [5] 75.7% | viability, T/C [6] 66.6% | viability, T/C [7] 60.8% | viability, T/C [8] 69.8% | viability, T/C [9] 54.1% | viability, T/C [10] 73.5% | viability, T/C [11] 66.2% | viability, T/C [12] 48.8%
< 31.6 nM: IC50 (second compound 0.316 µM) | IC50 (second compound 1 µM) | IC50 (second compound 3.16 µM) | IC50 (second compound 10 µM)
active: viability, T/C [13] 5.56% | viability, T/C [14] 4.19% | viability, T/C [15] 4.12% | viability, T/C [16] 4.66% | viability, T/C [17] 5.44% | viability, T/C [18] 3.88% | viability, T/C [19] 1.55% | viability, T/C [20] 3.72% | viability, T/C [21] 3.44% | viability, T/C [22] 2.14% | viability, T/C [23] 2.19% | viability, T/C [24] 1.68% | viability, T/C [25] 5.54% | viability, T/C [26] 3.34% | viability, T/C [27] 3.99% | viability, T/C [28] 3.31% | viability, T/C [29] 3.4% | viability, T/C [30] 2.14% | viability, T/C [31] 2.64% | viability, T/C [32] 1.93% | viability, T/C [33] 2.01% | viability, T/C [34] 1.95% | viability, T/C [35] 1.9% | viability, T/C [36] 1.68%
> 10000 nM: IC50 (second compound 0.0316 µM) | IC50 (second compound 0.1 µM)

COc1cccc2c1C(=O)c1c(O)c3c(c(O)c1C2=O)CC(O)(C(=O)CO)CC3OC1CC(N)C(O)C(C)O1 (stereo not given) + CN1CCN(c2cc(C(=O)Nc3cc4cc(-c5cnn(C)c5)ccc4cn3)ccn2)CC1
inactive: viability, T/C [1] 84.1% | viability, T/C [2] 68% | viability, T/C [3] 32.8% | viability, T/C [4] 12.8% | viability, T/C [7] 64.5% | viability, T/C [8] 44.6% | viability, T/C [9] 17.3%
180 nM: IC50 (second compound 0.0316 µM)
< 31.6 nM: IC50 (second compound 0.316 µM) | IC50 (second compound 1 µM) | IC50 (second compound 3.16 µM) | IC50 (second compound 10 µM)
73.4 nM: IC50 (second compound 0.1 µM)
active: viability, T/C [5] 2.47% | viability, T/C [6] 10.4% | viability, T/C [10] 8.44% | viability, T/C [11] 2.6% | viability, T/C [12] 10.8% | viability, T/C [13] 5.51% | viability, T/C [14] 5.14% | viability, T/C [15] 1.16% | viability, T/C [16] 1.51% | viability, T/C [17] 3.05% | viability, T/C [18] 9.1% | viability, T/C [19] 1.69% | viability, T/C [20] 1.91% | viability, T/C [21] 2.92% | viability, T/C [22] 4.33% | viability, T/C [23] 3.24% | viability, T/C [24] 11% | viability, T/C [25] 5.16% | viability, T/C [26] 2.78% | viability, T/C [27] 2.53% | viability, T/C [28] 3.22% | viability, T/C [29] 3.62% | viability, T/C [30] 7.06% | viability, T/C [31] 3.68% | viability, T/C [32] 1.75% | viability, T/C [33] 1.37% | viability, T/C [34] 1.43% | viability, T/C [35] 1.53% | viability, T/C [36] 1.26%

C=CC(=O)N1CCN(c2nc(=O)n(-c3c(C)ccnc3C(C)C)c3nc(-c4c(O)cccc4F)c(F)cc23)C(C)C1 (stereo not given) + CNC(=O)c1ccc(Nc2nc(OC3CCCC3)c3c(-c4ccc5nc(C)oc5c4)c[nH]c3n2)c(OC)c1
inactive: viability, T/C [1] 107% | viability, T/C [2] 92% | viability, T/C [3] 135% | viability, T/C [4] 103% | viability, T/C [5] 104% | viability, T/C [6] 108% | viability, T/C [7] 110% | viability, T/C [8] 101% | viability, T/C [9] 111% | viability, T/C [10] 118% | viability, T/C [11] 121% | viability, T/C [12] 107% | viability, T/C [13] 111% | viability, T/C [14] 87.9% | viability, T/C [15] 108% | viability, T/C [16] 104% | viability, T/C [17] 124% | viability, T/C [18] 98.6% | viability, T/C [19] 70.3% | viability, T/C [20] 57.6% | viability, T/C [21] 57.9% | viability, T/C [22] 63.5% | viability, T/C [23] 65.8% | viability, T/C [24] 52.3% | viability, T/C [25] 45.4% | viability, T/C [26] 63.2% | viability, T/C [27] 50.2% | viability, T/C [28] 51.6% | viability, T/C [29] 47.9% | viability, T/C [30] 26.6% | viability, T/C [31] 37.7% | viability, T/C [32] 35.5% | viability, T/C [33] 39.5% | viability, T/C [34] 44.5% | viability, T/C [35] 36% | viability, T/C [36] 18.6%
> 10000 nM: IC50 (second compound 0.0316 µM) | IC50 (second compound 0.1 µM) | IC50 (second compound 0.316 µM) | IC50 (second compound 1 µM)
1700 nM: IC50 (second compound 3.16 µM)
< 31.6 nM: IC50 (second compound 10 µM)

CCCS(=O)(=O)Nc1ccc(F)c(C(=O)c2c[nH]c3ncc(-c4ccc(Cl)cc4)cc23)c1F + CNC(=O)c1ccc(Nc2nc(OC3CCCC3)c3c(-c4ccc5nc(C)oc5c4)c[nH]c3n2)c(OC)c1
241 nM: IC50 (second compound 3.16 µM)
7060 nM: IC50 (second compound 1 µM)
inactive: viability, T/C [1] 87.8% | viability, T/C [2] 94% | viability, T/C [3] 96.5% | viability, T/C [4] 101% | viability, T/C [5] 105% | viability, T/C [6] 66.2% | viability, T/C [7] 102% | viability, T/C [8] 101% | viability, T/C [9] 107% | viability, T/C [10] 108% | viability, T/C [11] 114% | viability, T/C [12] 56.2% | viability, T/C [13] 78.2% | viability, T/C [14] 93.2% | viability, T/C [15] 96% | viability, T/C [16] 118% | viability, T/C [17] 126% | viability, T/C [18] 46% | viability, T/C [19] 64.7% | viability, T/C [20] 80% | viability, T/C [21] 84.1% | viability, T/C [22] 85.7% | viability, T/C [23] 85.8% | viability, T/C [24] 36.9% | viability, T/C [25] 53.1% | viability, T/C [26] 52.6% | viability, T/C [27] 49.6% | viability, T/C [28] 36.1% | viability, T/C [29] 28.1% | viability, T/C [30] 24.7% | viability, T/C [31] 39% | viability, T/C [32] 40.2% | viability, T/C [33] 45.1% | viability, T/C [34] 35.5% | viability, T/C [35] 33.5% | viability, T/C [36] 24.3%
9220 nM: IC50 (second compound 0.316 µM)
> 10000 nM: IC50 (second compound 0.0316 µM) | IC50 (second compound 0.1 µM)
< 31.6 nM: IC50 (second compound 10 µM)

COC1C=CCC(C)C(C)S(=O)(=O)NC(=O)c2ccc3c(c2)N(CC2CCC21)CC1(CCCc2cc(Cl)ccc21)CO3 (stereo not given) + CNC(=O)c1ccc(Nc2nc(OC3CCCC3)c3c(-c4ccc5nc(C)oc5c4)c[nH]c3n2)c(OC)c1
207 nM: IC50 (second compound 1 µM)
inactive: viability, T/C [1] 84% | viability, T/C [2] 94.8% | viability, T/C [3] 106% | viability, T/C [4] 81.1% | viability, T/C [5] 88.3% | viability, T/C [6] 20.1% | viability, T/C [7] 78.6% | viability, T/C [8] 88.7% | viability, T/C [9] 77.4% | viability, T/C [10] 64.7% | viability, T/C [11] 59.7% | viability, T/C [12] 17.8% | viability, T/C [13] 94% | viability, T/C [14] 76.3% | viability, T/C [15] 76.6% | viability, T/C [16] 43.2% | viability, T/C [17] 30% | viability, T/C [18] 14.6% | viability, T/C [19] 75% | viability, T/C [20] 58.7% | viability, T/C [21] 45.9% | viability, T/C [22] 28% | viability, T/C [23] 16.7% | viability, T/C [24] 10.8% | viability, T/C [25] 54% | viability, T/C [26] 41.2% | viability, T/C [27] 33% | viability, T/C [28] 17.7% | viability, T/C [29] 9.9% | viability, T/C [31] 38.7% | viability, T/C [32] 34.4% | viability, T/C [33] 25.8% | viability, T/C [34] 14.4% | viability, T/C [35] 9.05%
active: viability, T/C [30] 8.25% | viability, T/C [36] 9.22%
46.2 nM: IC50 (second compound 3.16 µM)
6020 nM: IC50 (second compound 0.0316 µM)
3740 nM: IC50 (second compound 0.1 µM)
< 31.6 nM: IC50 (second compound 10 µM)
897 nM: IC50 (second compound 0.316 µM)
